Assay results taken from PMC12362783 (Advanced Science, 2025).

Tests used:
[1] = test system: MDA‐MB‐436; assay: Cell growth inhibition, CellTiter‐Glo (CTG); type: cell-based; conditions: CTG, 5 days, n = 3
Description: (§1) All cells were grown in a humidified incubator at 37 °C and 5% CO2.
(§2) Growth viability was determined by the CellTiter‐Glo luminescent viability assay (Promega) 5 days after drug treatment. Cell viability was measured immediately after dosing (Day 0) and after 5 days of incubation using CellTiter‐Glo (CTG, Promega, G7573). Relative viability was calculated by normalizing the raw luminescence counts of the treated groups to those of the DMSO control groups. IC₅₀ values were calculated using sigmoidal dose‐response curve fitting with GraphPad Prism 9.0 software.

[2] = test system: MCF‐7; assay: Cell growth inhibition, CellTiter‐Glo (CTG); type: cell-based; conditions: Homo sapiens, MCF7; n = 3
Description: as §2

[3] = test system: MDA‐MB‐453; assay: Cell growth inhibition, CellTiter‐Glo (CTG); type: cell-based; conditions: Homo sapiens, MDA-MB-453, read-out: IC50 MAD‐MB‐453
Description: as §2

[4] = test system: MCF‐10A; assay: Cell growth inhibition, normal breast cell line; type: cell-based; conditions: Homo sapiens, MCF-10A; @30 µM; read-out: MCF‐10A inhibitory rate at certain concentration
Description: as §2

[5] = test system: MDA‐MB‐231; assay: Cell growth inhibition, CellTiter‐Glo (CTG); type: cell-based; conditions: Homo sapiens, MDA-MB-231, 120 h, read-out: IC50 MDA‐MB‐231; CTG, 5 days, n = 3
Description: as §1
(§3) […] […] Relative viability was calculated by normalizing the raw luminescence counts of the treated groups to those of the DMSO control groups. IC₅₀ values were calculated using sigmoidal dose‐response curve fitting with GraphPad Prism 9.0 software.

[6] = test system: MDA‐MB‐468; assay: Cell growth inhibition, CellTiter‐Glo (CTG); type: cell-based; conditions: Homo sapiens, MDA-MB-468, 120 h; CTG, 5 days, n = 3
Description: as §1, §3

[7] = test system: MDA‐MB‐231 cells; assay: Cell cycle assay, flow cytometry (PI); type: cell-based; conditions: MDA‐MB‐231, 48 h; A7, B8 0.5 and 1.0 µM, controls 1.0 µM
Description: (§4) The cell cycle analysis was performed with cells seeded in 6‐well plates in growth media. The cells were allowed to attach overnight (8 h). The cultures were treated with different tested drugs for 48 h. After treatment, cells were collected and fixed with 70% pre‐cold ethanol in PBS and stored at −20 °C overnight. Then washed the cells with PBS twice, and incubated with 100 µg mL^−1 RNase A at 37 °C for 1 h, stained with propidium iodide for 30 min avoid light at room temperature. The stained cells were analyzed by flow cytometry. The percentages of cells in the G1, S, and G2/M phases were determined. The data were analyzed by FlowJo software (Tree Star, Inc., Ashland, OR).

[8] = test system: MDA‐MB‐468 cells; assay: Cell cycle assay, flow cytometry (PI); type: cell-based; conditions: MDA‐MB‐468, 48 h; A7, B8 0.5 and 1.0 µM, controls 1.0 µM
Description: as §4

[9] = target: PARP1 (Homo sapiens, UniProt P09874); assay: PARP enzymatic inhibition ELISA (PARP1); type: biochemical; conditions: n = 3, mean ± SD
Description: The PARP activity assay was performed by ChemPartner (Shanghai, China). Each well was precoated with histone (final conc.: 100 ng mL^−1) diluted in PBS buffer (contains 10 mmol L^−1 NaH2PO4 and 150 mmol L^−1 NaCl, pH 7.4) by incubation at 4 °C overnight. […] The reaction was initiated by the addition of 10 µL of PARP (final conc.: 0.007 nM/well) at room temperature for 60 min. Add 20 µL of anti‐Poly/Mono‐ADP Ribose Rabbit mAb. Incubate for 1.5 h at room temperature and wash the plate three times using PBST buffer. […] Incubate for 1 h at room temperature and wash the plate three times using PBST buffer. Add 25 µL Femto‐ECL Substrate A and Femto‐ECL Substrate B (1:1) mix. Immediately read chemiluminescence on Envision (Revvity, USA).

[10] = test system: MDA‐MB‐231 cells; assay: Cell apoptosis assay, Annexin V‐FITC/PI; type: cell-based; conditions: MDA‐MB‐231, 72 h
Description: (§5) The cell apoptosis analysis was performed with cells seeded in 6‐well plates in growth media. The cells were allowed to attach overnight (8 h). The cultures were treated with different tested drugs for 72 h and evaluated using an Annexin V Flow Kit (BioLegend#B367750) according to the manufacturer's instructions. The data were analyzed by FlowJo software (Tree Star, Inc., Ashland, OR).

[11] = test system: MDA‐MB‐468 cells; assay: Cell apoptosis assay, Annexin V‐FITC/PI; type: cell-based; conditions: MDA‐MB‐468, 72 h
Description: as §5

[12] = target: T1, ATR (Homo sapiens, UniProt Q13535); assay: ATR kinase inhibition, Mobility Shift Assay; type: biochemical; conditions: n = 3, mean ± SD
T1 construct: purchased Eurofins 14-953
Description: The in vitro ATR kinase inhibitory activities were determined by ChemPartner Co., Ltd. (Shanghai, China) using the Mobility Shift Assay. The tested compound was dissolved with DMSO and diluted to 1000/3 × of the final desired highest inhibitor concentration in the reaction. […] The assay wells were incubated at 28 °C for 4 h.

[13] = Homo sapiens, MDA-MB-436, 120 h

Sequence of PARP1 (P09874 whole entry): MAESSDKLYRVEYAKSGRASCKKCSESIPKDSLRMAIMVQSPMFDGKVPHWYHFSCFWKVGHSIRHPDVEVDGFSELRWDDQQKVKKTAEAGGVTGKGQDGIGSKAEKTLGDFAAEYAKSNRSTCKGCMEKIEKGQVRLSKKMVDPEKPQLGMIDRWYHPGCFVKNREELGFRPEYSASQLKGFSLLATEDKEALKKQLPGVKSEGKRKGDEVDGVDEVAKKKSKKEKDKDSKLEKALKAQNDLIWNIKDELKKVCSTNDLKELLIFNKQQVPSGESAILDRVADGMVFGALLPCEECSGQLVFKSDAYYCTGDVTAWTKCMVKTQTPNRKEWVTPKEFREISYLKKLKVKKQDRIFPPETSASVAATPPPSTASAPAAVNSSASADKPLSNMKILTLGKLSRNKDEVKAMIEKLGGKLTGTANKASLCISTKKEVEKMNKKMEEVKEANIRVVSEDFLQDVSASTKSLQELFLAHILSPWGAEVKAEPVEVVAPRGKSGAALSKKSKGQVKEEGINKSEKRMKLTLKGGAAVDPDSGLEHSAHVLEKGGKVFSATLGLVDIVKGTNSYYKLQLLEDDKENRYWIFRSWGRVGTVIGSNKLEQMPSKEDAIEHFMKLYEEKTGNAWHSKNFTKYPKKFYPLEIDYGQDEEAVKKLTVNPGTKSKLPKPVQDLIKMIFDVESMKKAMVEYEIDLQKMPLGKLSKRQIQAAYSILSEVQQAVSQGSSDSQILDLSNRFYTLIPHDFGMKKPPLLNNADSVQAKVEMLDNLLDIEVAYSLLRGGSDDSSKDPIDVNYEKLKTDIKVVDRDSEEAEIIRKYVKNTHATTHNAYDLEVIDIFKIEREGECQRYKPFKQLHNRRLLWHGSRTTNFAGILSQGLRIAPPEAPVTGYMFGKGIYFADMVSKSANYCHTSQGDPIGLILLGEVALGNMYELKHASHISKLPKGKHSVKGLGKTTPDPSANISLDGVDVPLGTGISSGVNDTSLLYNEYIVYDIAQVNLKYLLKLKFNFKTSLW
T1 sequence (Q13535 whole entry): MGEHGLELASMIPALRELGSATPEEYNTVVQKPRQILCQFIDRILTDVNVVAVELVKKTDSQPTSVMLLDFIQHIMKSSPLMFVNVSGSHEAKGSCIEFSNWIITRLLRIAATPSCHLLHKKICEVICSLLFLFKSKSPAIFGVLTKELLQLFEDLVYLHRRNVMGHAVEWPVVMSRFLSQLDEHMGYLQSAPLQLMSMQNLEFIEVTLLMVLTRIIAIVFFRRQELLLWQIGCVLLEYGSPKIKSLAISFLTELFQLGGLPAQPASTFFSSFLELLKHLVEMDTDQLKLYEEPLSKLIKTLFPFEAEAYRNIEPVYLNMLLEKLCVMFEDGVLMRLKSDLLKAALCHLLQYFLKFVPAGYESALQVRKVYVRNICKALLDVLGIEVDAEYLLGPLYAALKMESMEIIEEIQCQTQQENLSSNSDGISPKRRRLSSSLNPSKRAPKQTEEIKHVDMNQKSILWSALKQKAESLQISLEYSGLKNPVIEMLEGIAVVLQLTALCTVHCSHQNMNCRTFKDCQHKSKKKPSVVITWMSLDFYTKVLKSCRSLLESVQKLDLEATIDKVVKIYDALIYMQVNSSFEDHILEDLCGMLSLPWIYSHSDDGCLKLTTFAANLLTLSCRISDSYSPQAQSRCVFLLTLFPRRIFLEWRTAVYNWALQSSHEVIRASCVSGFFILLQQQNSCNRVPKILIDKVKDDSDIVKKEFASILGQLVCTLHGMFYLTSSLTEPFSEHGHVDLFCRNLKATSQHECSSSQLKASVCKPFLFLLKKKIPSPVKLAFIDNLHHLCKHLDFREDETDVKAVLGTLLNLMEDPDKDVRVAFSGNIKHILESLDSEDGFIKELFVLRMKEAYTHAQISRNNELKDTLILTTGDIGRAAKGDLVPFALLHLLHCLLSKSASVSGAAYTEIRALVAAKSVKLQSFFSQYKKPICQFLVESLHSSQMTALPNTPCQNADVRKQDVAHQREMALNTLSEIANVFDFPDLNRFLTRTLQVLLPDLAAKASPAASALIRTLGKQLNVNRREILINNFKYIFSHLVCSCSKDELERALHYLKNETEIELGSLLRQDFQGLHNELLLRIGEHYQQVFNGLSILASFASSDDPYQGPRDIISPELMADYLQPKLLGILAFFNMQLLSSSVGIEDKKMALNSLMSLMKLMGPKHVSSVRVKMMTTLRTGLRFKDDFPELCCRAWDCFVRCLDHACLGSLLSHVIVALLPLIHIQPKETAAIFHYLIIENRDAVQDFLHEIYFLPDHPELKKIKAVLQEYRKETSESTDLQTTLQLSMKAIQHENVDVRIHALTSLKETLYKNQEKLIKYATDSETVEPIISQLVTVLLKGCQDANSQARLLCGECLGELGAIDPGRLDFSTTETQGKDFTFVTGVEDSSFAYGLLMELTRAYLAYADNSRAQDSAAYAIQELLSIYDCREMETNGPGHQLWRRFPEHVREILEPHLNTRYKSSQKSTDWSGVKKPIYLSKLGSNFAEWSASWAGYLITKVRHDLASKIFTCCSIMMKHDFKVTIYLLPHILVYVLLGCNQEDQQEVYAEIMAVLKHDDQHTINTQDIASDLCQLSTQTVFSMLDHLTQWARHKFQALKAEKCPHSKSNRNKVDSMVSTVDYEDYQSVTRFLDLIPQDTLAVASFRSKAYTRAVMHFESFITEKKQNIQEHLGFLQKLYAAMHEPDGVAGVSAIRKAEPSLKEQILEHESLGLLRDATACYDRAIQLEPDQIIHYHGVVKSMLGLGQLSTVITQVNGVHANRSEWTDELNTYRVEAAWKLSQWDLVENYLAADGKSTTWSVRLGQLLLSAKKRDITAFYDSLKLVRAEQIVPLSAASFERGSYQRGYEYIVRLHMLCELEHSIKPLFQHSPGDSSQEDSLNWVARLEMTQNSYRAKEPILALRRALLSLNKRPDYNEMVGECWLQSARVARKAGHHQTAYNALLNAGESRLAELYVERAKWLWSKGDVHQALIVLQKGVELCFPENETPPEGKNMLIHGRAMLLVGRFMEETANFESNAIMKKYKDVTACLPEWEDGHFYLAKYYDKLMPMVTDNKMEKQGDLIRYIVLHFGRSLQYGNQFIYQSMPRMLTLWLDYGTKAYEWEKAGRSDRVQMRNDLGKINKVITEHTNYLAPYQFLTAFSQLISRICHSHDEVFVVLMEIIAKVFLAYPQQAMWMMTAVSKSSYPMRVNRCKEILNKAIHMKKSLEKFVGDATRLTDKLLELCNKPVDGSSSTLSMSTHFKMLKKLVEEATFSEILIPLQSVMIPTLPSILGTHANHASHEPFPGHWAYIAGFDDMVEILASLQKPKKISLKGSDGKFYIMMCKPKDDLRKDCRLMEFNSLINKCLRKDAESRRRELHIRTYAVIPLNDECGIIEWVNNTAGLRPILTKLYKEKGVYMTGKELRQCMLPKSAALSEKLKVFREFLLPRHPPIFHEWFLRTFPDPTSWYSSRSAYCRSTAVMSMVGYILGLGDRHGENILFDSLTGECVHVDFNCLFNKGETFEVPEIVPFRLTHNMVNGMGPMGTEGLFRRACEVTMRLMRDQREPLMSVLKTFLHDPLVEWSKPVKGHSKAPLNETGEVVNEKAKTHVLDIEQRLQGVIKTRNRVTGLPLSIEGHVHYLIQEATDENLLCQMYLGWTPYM
T1 sequence (Q8WXE1 whole entry partner): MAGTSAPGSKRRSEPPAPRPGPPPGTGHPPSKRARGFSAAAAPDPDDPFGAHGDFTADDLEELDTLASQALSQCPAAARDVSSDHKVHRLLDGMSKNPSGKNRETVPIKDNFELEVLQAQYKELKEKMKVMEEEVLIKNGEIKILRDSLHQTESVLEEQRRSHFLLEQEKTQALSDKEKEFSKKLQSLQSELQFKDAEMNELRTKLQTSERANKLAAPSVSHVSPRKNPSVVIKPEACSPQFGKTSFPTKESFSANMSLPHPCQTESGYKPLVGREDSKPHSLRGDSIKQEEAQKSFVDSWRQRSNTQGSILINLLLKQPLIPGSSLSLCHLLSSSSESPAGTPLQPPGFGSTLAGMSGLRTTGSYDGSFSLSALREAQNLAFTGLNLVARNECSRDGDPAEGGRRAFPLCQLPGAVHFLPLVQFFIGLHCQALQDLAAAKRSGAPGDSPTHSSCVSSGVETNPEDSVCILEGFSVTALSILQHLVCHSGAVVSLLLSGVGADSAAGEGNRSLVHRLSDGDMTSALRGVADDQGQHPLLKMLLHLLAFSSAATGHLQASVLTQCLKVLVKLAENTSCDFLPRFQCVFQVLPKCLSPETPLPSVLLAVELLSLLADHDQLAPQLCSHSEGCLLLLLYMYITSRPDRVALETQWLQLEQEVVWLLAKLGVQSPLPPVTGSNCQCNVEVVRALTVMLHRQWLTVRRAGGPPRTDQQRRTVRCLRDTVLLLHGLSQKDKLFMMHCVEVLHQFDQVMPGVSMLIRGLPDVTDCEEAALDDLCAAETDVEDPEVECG

Row | SMILES | IC50 [1] | IC50 [1, 13] | IC50 [2] | IC50 [3] | inhibition at 30 µM [4] | IC50 [5] | IC50 [6] | effect on cell cycle distribution [7] | effect on cell cycle distribution [8] | IC50 [9] | ability to induce apoptosis vs combination of AZD6738 and Olaparib [10] | ability to induce apoptosis vs combination of AZD6738 and Olaparib [11] | IC50 [12]
1 | O=C(c1cc(Cc2n[nH]c(=O)c3ccccc23)ccc1F)N1CCN(C(=O)C2CC2)CC1 [1 (Olaparib), Olaparib, reference compound] | 4.53 ± 0.21 µM | 4.5 µM | > 30 µM | > 30 µM | 14.5% | 21.9 ± 2.36 µM | 10.5 ± 0.59 µM | did not significantly change the cell cycle distribution | did not significantly change the cell cycle distribution |  |  |  | 
2 | C[C@@H]1COCCN1c1cc(C2(NC(=O)c3ccc(C(=O)N4CCN(C(=O)c5cc(Cc6n[nH]c(=O)c7ccccc67)ccc5F)CC4)cc3)CC2)nc(-c2ccnc3[nH]ccc23)n1 [Compound A7, (R) ‐4‐(4‐(2‐fluoro‐5‐((4‐oxo‐3,4‐dihydrophthalazin‐1‐yl)methyl)benzoyl)piperazine‐1‐carbonyl)‐N‐(1‐(6‐(3‐methylmorpholino)‐2‐(1H‐pyrrolo[2,3‐b]pyridin‐4‐yl)pyrimidin‐4‐yl)cyclopropyl)benzamide] |  | 0.015 ± 0.001 µM |  |  |  | 13.4 ± 3.44 µM | 0.23 ± 0.07 µM | did not demonstrate any significant effects on the cell cycle | did not demonstrate any significant effects on the cell cycle | 0.00056 ± 0.00021 µM | does not show a significant enhancement | does not show a significant enhancement | 0.043 ± 0.007 µM
